Source: US8394967B2, “Antioxidant inflammation modulators: C-17 homologated oleanolic acid derivatives” (Reata Pharmaceuticals, Inc., priority 2008, dated 2013)

Legend:
[1] = Aqueous solubility determination (Millipore Multiscreen solubility filter plate, UV/vis); assay type: physicochemical; details: Universal Aqueous Buffer pH 7.4, 90 minutes at room temperature
Description: Aqueous Solubility Determination. The following procedure was used to obtain the aqueous solubility results summarized in Example 4. Step 1. Determination of optimal UV/vis wavelengths and generation of standard curves for a compound of interest: • (1) For eight standard calibration curves (one plate), prepare 34 mL of 50:50 (v:v) universal buffer:acetonitrile in a 50 mL tube. • (2) Using a multichannel pipet, dispense (in μL) the buffer:acetonitrile in a deep well plate as follows:
• (6) Cover plate with lid and shake (200-300 rpm) at room temperature for 20 minutes. • (7) Mix all wells by pipetting up and down 10 times. • (8) Transfer 120 μL from each well to a UV transparent plate. Cover and shake for 3-5 minutes. Remove any bubbles in the wells using a pipet. • (9) Read from 220 nm to 500 nm at 10 nm increments on a spectrophotometer (e.g., SpectraMax®).
Step 2. […]
Solubility Protocol: • (a) Add 285 μL of Universal Aqueous Buffer to desired wells of the Millipore™ Multiscreen® Solubility filter plate. • (b) Add 15 μL of 10 mM compound in DMSO to the appropriate wells. […] Remove any bubbles with a pipet. • (i) Measure the absorbance of each well in the plate on the spectrophotometer (UV/vis) at the desired wavelength. […]
The aqueous solubility of the compounds shown here was determined using the procedures outlined in Example 1.

[2] = tested on: NO production in RAW264.7 macrophages; test: Inhibition of NO production in IFNγ-treated RAW264.7 macrophages (Griess reagent); assay type: cell-based, mouse; details: Mus musculus, RAW264.7, RAW264.7 macrophages pre-treated 2 hours, then 20 ng/ml IFNγ for 24 hours
[3] = tested on: RAW264.7 macrophages; test: Cell viability of RAW264.7 macrophages (WST-1 reagent); assay type: cell-based, mouse; details: Mus musculus, RAW264.7, 24 h, cell viability, RAW264.7, 20 ng/ml IFNγ 24 hours, WST-1 reagent; read-out: RAW264.7 (20 ng/ml IFNγ) WST-1 IC50
[4] = tested on: HO-1; test: Nrf2 target gene induction, MDA-MB-435 (qPCR): HO-1; assay type: cell-based; details: Homo sapiens; MDA-MB-435, 250 nM, 16 hours, mRNA by qPCR
Description: (§1) Nrf2 target gene induction. MDA-MB-435 human melanoma cells were treated with vehicle (DMSO) or the indicated compounds and concentrations for 16 hours. HO-1, thioredoxin reductase-1 (TrxR1), γ-glutamylcysteine synthetase (γ-GCS), and ferritin heavy chain mRNA levels were quantified using qPCR and were normalized relative to a DMSO-treated sample run in parallel. Values are averages of duplicate wells. Primer sequences are as follows.

[5] = tested on: NQO1; test: Nrf2 target gene induction, MDA-MB-435 (qPCR): NQO1; assay type: cell-based; details: Homo sapiens; MDA-MB-435, 250 nM, 16 hours, mRNA by qPCR
[6] = tested on: γ-GCS; test: Nrf2 target gene induction, MDA-MB-435 (qPCR): γ-GCS; assay type: cell-based; details: Homo sapiens; MDA-MB-435, 250 nM, 16 hours, mRNA by qPCR
Description: as §1

[7] = TP levels in mouse brain after feeding in diet (LC/MS); assay type: in vivo; details: CD-1 mice fed 200 or 400 mg/kg diet for 3.5 days
Description: FIG. 7. […] CD-1 mice were fed either 200 or 400 mg/kg diet of either TP-319 or TP-500 for 3.5 days, and TP levels in the brains of the mice were analyzed by LC/MS. The structures of TP-319 and TP-500 are shown herein.

Row | Aqueous Solubility [1] [µM] | IC50 [2] [nM] | Compound | IC50 [3] [nM] | fold induction at 0.25 µM [4] | fold induction at 0.25 µM [5] | fold induction at 0.25 µM [6] | TP levels in the brains of the mice [7]
1 | 9.49 |  | CC1(C)CC[C@]2(N)CC[C@]3(C)[C@H](C(=O)C[C@@H]4[C@@]5(C)C=C(C#N)C(=O)C(C)(C)[C@@H]5CC[C@]43C)[C@@H]2C1 [Compound 63208] |  |  |  |  | 
2 |  | ~20 | Cc1cc(CNC[C@]23CCC(C)(C)C[C@H]2[C@H]2C(=O)C[C@@H]4[C@@]5(C)C=C(C#N)C(=O)C(C)(C)[C@@H]5CC[C@@]4(C)[C@]2(C)CC3)no1 [Compound 63232, (4aR,6aR,6bR,8aS,12aS,12bR,14aR,14bR)-4,4,6a,6b,11,11,14b-heptamethyl-8a-(((5-methylisoxazol-3-yl)methylamino)methyl)-3,13-dioxo-3,4,4a,5,6,6a,6b,7,8,8a,9,10,11,12,12a,12b,13,14,14a,14b-icosahydropicene-2-carbonitrile] | > 200 | 5 | 3.8 | 13.6 | 
3 |  | ~20 | CC1(C)CC[C@]2(CNC(=O)OC(C)(C)C)CC[C@]3(C)[C@H](C(=O)CC4[C@@]5(C)C=C(C#N)C(=O)C(C)(C)C5CC[C@]43C)[C@@H]2C1 (stereo partly drawn) [Compound 63253, tert-butyl((4aS,6aR,6bR,12aR,14aR,14bS)-11-cyano-2,2,6a,6b,9,9,12a-heptamethyl-10,14-dioxo-1,2,3,4,4a,5,6,6a,6b,7,8,8a,9,10,12a,12b,13,14,14a,14b-icosahydropicen-4a-yl)methylcarbamate] | ~200 | 2 | 1.5 | 3 | 

More lines, now with the values behind:

Row | Compound | Aqueous Solubility [1] [µM] | IC50 [2] [nM] | IC50 [3] [nM] | fold induction at 0.25 µM [4] | fold induction at 0.25 µM [5] | fold induction at 0.25 µM [6] | TP levels in the brains of the mice [7]
4 | CC1(C)CC[C@]2(N)CC[C@]3(C)[C@H](C(=O)C[C@@H]4[C@@]5(C)C=C(C#N)C(=O)C(C)(C)[C@@H]5CC[C@]43C)[C@@H]2C1 [Compound 63198] | 163.6 |  |  |  |  |  | 
5 | CC1(C)CC[C@]2(C(=O)NCC(F)(F)F)CC[C@]3(C)[C@H](C(=O)C=C4[C@@]5(C)C=C(C#N)C(=O)C(C)(C)[C@@H]5CC[C@]43C)[C@@H]2C1 [TP-500] |  |  |  |  |  |  | Higher Levels in Mouse Brain than CDDO-EA (TP-319)
